{"source": "patent EP0955376A1", "about": "“ANTIBIOTIC TKR 459, PRODUCTION METHOD, AND MICROORGANISM” (Takara Shuzo Co, Ltd., priority 1996, dated 1998)", "key": {"[1]": {"test_system": "Candida albicans TIMM0136", "test": "Antimicrobial spectrum, liquid medium dilution method", "type": "cell-based", "conditions": "medium YNBG, minimal concentration causing substantially complete inhibition of growth, read-out: Minimal inhibitory concentration", "protocol": "(§1) The TKR459 obtained was used to determine antimicrobial spectra against various microorganisms. The minimal inhibitory concentration (µg/ml) was measured by the liquid medium dilution method as the minimal concentration causing a substantially complete inhibition of micobial growth. The sub-minimal inhibitory concentration (µg/ml) was determined as the minimal concentration causing a partial inhibition of micobial growth and shown in the parentheses of Table 2. In the table, YNBG stands for a medium comprising 0.67% of yeast nitrogen base (manufactured by Difco) and 1.0% of glucose."}, "[2]": {"test_system": "Cryptococcus neoformans TIMM0354", "test": "Antimicrobial spectrum, liquid medium dilution method", "type": "cell-based", "conditions": "medium YNBG, minimal concentration causing substantially complete inhibition of growth, read-out: Minimal inhibitory concentration", "protocol": "as §1"}, "Candida kefyr TIMM0301": {"test_system": "Candida kefyr TIMM0301", "test": "Antimicrobial spectrum, liquid medium dilution method", "type": "cell-based", "conditions": "Kluyveromyces marxianus, medium YNBG", "protocol": "as §1"}, "Solubility in solvents": {"test": "Solubility in solvents", "type": "physicochemical"}, "ICR mice": {"test_system": "ICR mice", "test": "Toxicity after intraperitoneal administration to mice", "type": "in vivo", "conditions": "dose 100 mg/kg"}}, "note": "Where two headings read alike, the source gives them in different places."}
{"smiles": "CC1(CCC(=O)O)CCCCCCCCCCCCCC(O)C(O)C(O)C(N)C(O)O1", "note": "(stereo not drawn) [TKR459]", "values": [{"measurement": "MIC", "setting": "[1]", "result": 0.78, "unit": "µg/mL"}, {"measurement": "MIC", "setting": "[2]", "result": 3.13, "unit": "µg/mL"}, {"measurement": "MIC", "setting": "Candida kefyr TIMM0301; minimal concentration causing substantially complete inhibition of growth, read-out: Minimal inhibitory concentration", "result": 0.78, "unit": "µg/mL"}, {"measurement": "MIC", "setting": "Candida kefyr TIMM0301; value in parentheses, minimal concentration causing partial inhibition of growth, read-out: sub-minimal inhibitory concentration", "result": 0.39, "unit": "µg/mL"}, {"measurement": "solubility", "setting": "Solubility in solvents; in chloroform", "result": "sparingly soluble"}, {"measurement": "solubility", "setting": "Solubility in solvents; in hexane", "result": "sparingly soluble"}, {"measurement": "solubility", "setting": "Solubility in solvents; in methanol", "result": "soluble"}, {"measurement": "solubility", "setting": "Solubility in solvents; in water", "result": "soluble"}, {"measurement": "toxic signs", "setting": "ICR mice", "result": "no toxic signs"}]}
